Reference: patent US20140113931A1, “SUBSTITUTED PICOLINAMIDE KINASE INHIBITORS” (Portola Pharmaceuticals, Inc., priority 2012, published 2014)

Each compound was assayed against T1, full length active recombinant SYK enzyme (Homo sapiens, UniProt P43405) (assay: Inhibition of Syk tyrosine phosphorylation activity (LANCE TR-FRET kinase assay)). Settings: 1 nM active SYK enzyme, 550 nM SYK-substrate, 100 μM ATP, 1 hour at room temperature.
T1 construct: full length active recombinant SYK enzyme (Millipore, CA); purchased Millipore, CA
Type: biochemical
Protocol: The in vitro and in vivo human Syk activities of the inventive compounds can be determined by various procedures known in the art, such as a test for their ability to inhibit the activity of human plasma Syk. […] The IC50 value is the concentration (in nM) of the compound required to provide 50% inhibition of human Syk proteolytic activity.
An in vitro assay for detecting and measuring inhibition activity against Syk is as follows:
SYK tyrosine phosphorylation activity is measured using the LANCE™ Technology developed by Perkin Elmer Life and Analytical Sciences (Boston, Mass.). LANCE™ refers to homogeneous time resolved fluorometry applications using techniques such as time-resolved fluorescence resonance energy transfer assay (TR-FRET) (see generally for procedures in Perkin Elmer Application Note—How to Optimize a Tyrosine Kinase Assay Using Time Resolved Fluorescence-Based LANCE Detection, wwww.perkinelmer.com/lifesciences). The assay principle involves detection of a phosphorylated substrate using energy transfer from a phosphospecific europium-labeled antibody to streptavidin-allophycocyanin as an acceptor.
Molecules are reconstituted in 30% DMSO and serially diluted 1:3 with the final dilution containing DMSO in the absence of the candidate molecule. The final DMSO concentration in the assay is 3%. Kinase assays are performed as a two part reaction. The first reaction is a kinase reaction and which comprises of a candidate molecule, full length active recombinant SYK enzyme (Millipore, CA) and biotin-labeled SYK-specific substrate biotin-DEEDYESP-OH. The second reaction involves termination of the kinase reaction and the simultaneous addition of the detection reagents-europium-labeled anti-phosphotyrosine reagent (Eu-W1024-PY100, Perkin Elmer, Boston, Mass.) and Streptavidin-Allophycocyanin detection reagent (SA-APC, Prozyme, CA). The kinase reaction is performed in a black U-bottom 96-well microtitre plate. The final reaction volume is 50 μL and contains a final concentration of 1 nM active SYK enzyme, 550 nM SYK-substrate, and 100 μM ATP diluted in a buffer containing 50 mM Tris pH 7.5, 5 mM MgCl2, and 1 mM DTT. The reaction is allowed to proceed for 1 hour at room temperature. The quench buffer contains 100 mM Tris pH 7.5, 300 mM NaCl2, 20 mM EDTA, 0.02% Brij35, and 0.5% BSA. The detection reagents are added to the reaction mixture at the following dilutions-1:500 for Eu-W1024-PY100 and 1:250 for SA-APC. The kinase reaction is terminated by the addition of 50 μL quench buffer containing the detection reagents. The detection is allowed to proceed for 1 hr at room temperature. Detection of the phosphorlated substrate in the absence and presence of inhibitors is measured in the TR-FRET instrument, Analyst HT (Molecular Probes, Sunnyvale, Calif.) and the condition for measurements are set up using CriterionHost Release 2.0 (Molecular Probes, Sunnyvale, Calif.). The settings used are a follows: excitation 360 nm, emission 665-7.5 nm, beam splitter 350 nm 50/50, flash 100 pulses, delay 60 us, integration 400 us, z-height 2 mm. Inhibition of SYK-tyrosine kinase activity is calculated as the maximum response observed in the presence of inhibitor, compared to that in the absence of inhibitor. IC50s were derived by non-linear regression analysis.

Compound	IC50
NC(=O)c1ncc(N[C@@H]2CCCC[C@@H]2N)cc1Nc1nc(-c2ccccc2)no1 [Example 29, 5-(((1R,2S)-2-aminocyclohexyl)amino)-3-((3-phenyl-1,2,4-oxadiazol-5-yl)amino)picolinamide]	10 to 100 nM
CC(C)(C)C[C@@H](Nc1cnc(C(N)=O)c(Nc2ccc3cccnc3c2)c1)C(N)=O [Example 41, (R)-5-(1-amino-4,4-dimethyl-1-oxopentan-2-ylamino)-3-(quinolin-7-ylamino)picolinamide]	1 to 10 nM
Cc1cc(Nc2cc(N[C@@H]3CCCC[C@@H]3N)cnc2C(N)=O)on1 [Example 10, 5-((1R,2S)-2-aminocyclohexylamino)-3-(3-methylisoxazol-5-ylamino)picolinamide]	10 to 100 nM
Cc1nsc(Nc2cc(N[C@H](CC3CC3)C(N)=O)cnc2C(N)=O)c1I [Example 31, (R)-5-((1-amino-3-cyclopropyl-1-oxopropan-2-yl)amino)-3-((4-iodo-3-methylisothiazol-5-yl)amino)picolinamide]	100 to 1000 nM
Cc1cc(Nc2cc(N[C@H](CC(C)C)C(N)=O)cnc2C(N)=O)sn1 [Example 1, (R)-5-(1-amino-4-methyl-1-oxopentan-2-ylamino)-3-(3-methylisothiazol-5-ylamino)picolinamide]	1 to 10 nM
NC(=O)c1ncc(N[C@@H]2CCOC[C@@H]2N)cc1Nc1cc(-c2cccnc2)no1 [Example 53, 5-((3R,4R)-3-aminotetrahydro-2H-pyran-4-ylamino)-3-(3-(pyridin-3-yl)isoxazol-5-ylamino)picolinamide]	10 to 100 nM
CC(C)c1cc(Nc2cc(N[C@@H]3CCCC[C@@H]3N)cnc2C(N)=O)on1 [Example 36, 5-((1R,2S)-2-aminocyclohexylamino)-3-(3-isopropylisoxazol-5-ylamino)picolinamide]	10 to 100 nM
Cc1cc(Nc2cc(N[C@H](CC3CC3)C(N)=O)cnc2C(N)=O)sn1 [Example 3, (R)-5-(1-amino-3-cyclopropyl-1-oxopropan-2-ylamino)-3-(3-methylisothiazol-5-ylamino)picolinamide]	1 to 10 nM
CC(C)[C@@H](Nc1cnc(C(N)=O)c(Nc2cc(C3CC3)no2)c1)C(N)=O [Example 35, (R)-5-(1-amino-3-methyl-1-oxobutan-2-ylamino)-3-(3-cyclopropylisoxazol-5-ylamino)picolinamide]	10 to 100 nM
Cc1cc(Nc2cc(N[C@@H](C(N)=O)c3ccccc3)cnc2C(N)=O)sn1 [Example 42, (R)-5-(2-amino-2-oxo-1-phenylethylamino)-3-(3-methylisothiazol-5-ylamino)picolinamide]	10 to 100 nM
NC(=O)c1ncc(N[C@@H]2CCCC[C@@H]2N)cc1Nc1ccc2cccnc2c1 [Example 15, 5-((1R,2S)-2-aminocyclohexylamino)-3-(quinolin-7-ylamino)picolinamide]	10 to 100 nM
Cc1cc(Nc2cc(N[C@H](C)C(N)=O)cnc2C(N)=O)sn1 [Example 43, (R)-5-(1-amino-1-oxopropan-2-ylamino)-3-(3-methylisothiazol-5-ylamino)picolinamide]	10 to 100 nM
NC(=O)c1ncc(N[C@@H]2CCCC[C@@H]2N)cc1Nc1cccc(-n2nccn2)c1 [Example 6, 3-(3-(2H-1,2,3-triazol-2-yl)phenylamino)-5-((1R,2S)-2-aminocyclohexylamino)picolinamide]	10 to 100 nM
NC(=O)c1ncc(N[C@@H]2CCCC[C@@H]2N)cc1Nc1ccc2ncccc2c1 [Example 27, 5-((1R,2S)-2-aminocyclohexylamino)-3-(quinolin-6-ylamino)picolinamide]	10 to 100 nM
CCc1cc(Nc2cc(N[C@@H]3CCCC[C@@H]3N)cnc2C(N)=O)on1 [Example 37, 5-((1R,2S)-2-aminocyclohexylamino)-3-(3-ethylisoxazol-5-ylamino)picolinamide]	10 to 100 nM
NC(=O)c1ncc(N[C@@H]2CCCC[C@@H]2N)cc1Nc1cc(C2CC2)no1 [Example 34, 5-((1R,2S)-2-aminocyclohexylamino)-3-(3-cyclopropylisoxazol-5-ylamino)picolinamide]	1 to 10 nM
NC(=O)c1ncc(N[C@@H]2CCCC[C@@H]2N)cc1Nc1cnn2ccccc12 [Example 25, 5-((1R,2S)-2-aminocyclohexylamino)-3-(pyrazolo[1,5-a]pyridin-3-ylamino)picolinamide]	100 to 1000 nM
CC(C)(C)[C@@H](Nc1cnc(C(N)=O)c(Nc2cc(C3CC3)ns2)c1)C(N)=O [Example 39, (R)-5-(1-amino-3,3-dimethyl-1-oxobutan-2-ylamino)-3-(3-cyclopropylisothiazol-5-ylamino)picolinamide]	10 to 100 nM
CC(C)C[C@@H](Nc1cnc(C(N)=O)c(Nc2cc(-c3ccccc3)no2)c1)C(N)=O [Example 11, (R)-5-(1-amino-4-methyl-1-oxopentan-2-ylamino)-3-(3-phenylisoxazol-5-ylamino)picolinamide]	1 to 10 nM
NC(=O)c1ncc(N[C@H](CC(F)(F)F)C(N)=O)cc1Nc1ccc2cccnc2c1 [Example 51, (R)-5-(1-amino-4,4,4-trifluoro-1-oxobutan-2-ylamino)-3-(quinolin-7-ylamino)picolinamide]	1 to 10 nM
